# From patent US5314819A, “Protein having nitrile hydratase activity obtained from rhizobium, gene encoding the same, and a method for producing amides from nitriles via a transformant containing the gene” (Mitsubishi Kasei Corporation, priority 1992, dated 1994)
# Test system: transformant containing the pEAM24X1
# Test: Conversion of a nitrile into an amide using the transformant containing pEAM24X1
# Assay type: cell-based, Escherichia coli DH5 α
# Settings: transformant cultured with CoCl2 and IPTG; aqueous 7% acrylonitrile solution, 30° C., 1 hour; HPLC
# Method: The transformant containing the pEAM24X1 obtained in Example 7 was cultured overnight at 27° C. in 10 ml of an LB culture medium (containing 50 μg/ml Ampicillin). […] The strain were centrifuged and harvested, washed once in physiological saline, and suspended in 1.6 ml of a phosphate buffer (pH 7.0, 0.1M). 0.32 ml of the suspension was sampled, followed by mixing with 80 μl of an aqueous 7% acrylonitrile solution for reaction at 30° C. for 1 hour. After the termination of the reaction by addition of HCl as described before, the acrylamide and acrylonitrile concentrations in the reaction solution were determined by HPLC.
# Thus cobalt is essential for nitrile hydratase activity.
row,Compound,conversion of acrylonitrile to acrylamide
1,C=CC#N [Acrylonitrile],complete

# Same assay, conditions: transformant harboring pEAM24X1 cultured in a culture medium without cobalt
row,Compound,acrylamide in the reaction solution after termination of the reaction
1,C=CC#N [Acrylonitrile],no acrylamide was detected

# Test system: AM24 protein
# Test: Evaluation of the nitrile hydratase activity of AM24 protein (2): substrate specificity
# Assay type: biochemical, Rhizobium sp. MCI2643
# Settings: activity defined as 100 when acrylonitrile is the substrate; 0.2% (v/v) nitrile solution, 25° C., 5 minutes, pH 7.0; amide measured by HPLC
# Method: One volume of the AM24 protein solution (its absorbance was 0.1 at 280 nm) and 4 volumes of 0.5M phosphate buffer, pH 7.0 were mixed together, to which were added 90 volumes of a 0.2% (v/v) solution of a nitrile compound for reaction at 25° C. for 5 minutes. After the reaction, 5 volumes of 1N HCl were added to terminate the reaction, and the resulting solution was then applied to an ODS column for HPLC, to measure the resulting amide compound. As the nitrile compound as the substrate, use was made of acrylonitrile, propionitrile, n-butyronitrile, isobutyronitrile, acetonitrile, chloroacetonitrile, malonamidenitrile, methacrylonitrile, 3-cyanopyridine, benzonitrile, and chrotononitrile.
# The relative activity of each substrate is shown in Table 1, provided that the activity is defined as 100 when acrylonitrile is used as a reaction substrate.
row,Compound,Specific activity (%) (relative activity of each substrate)
1,CC=CC#N [Chrotononitrile],34
2,CC(C)C#N [Isobutyronitrile],28
3,N#CCCl [Chloroacetonitrile],671
4,N#Cc1cccnc1 [3-Cyanopyridine],9
5,N#Cc1ccccc1 [Benzonitrile],251
6,C=CC#N [Acrylonitrile],100
7,N#CCC(N)=O [Malonamidenitrile],143
8,C=C(C)C#N [Methacrylonitrile],143
9,CCC#N [Propionitrile],59
10,CC#N [Acetonitrile],47
11,CCCC#N [n-Butyronitrile],152
